Experimental data: ChEMBL document CHEMBL1201862, “PubChem BioAssay data set” (2004)
The source made the active and inactive calls. For most assays here, no stated cut-off is given here; in the data, actives have a measured EC50 and inactives only a lower limit.

Legend:
[1] = cytotoxicity toward NIH3T3 fibroblasts, dose response, counter-screen, cell-based, ATP luminescence, mouse fibroblasts (AID 2010); format: functional;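 further: cells exposed to compound for about 90 hours before reading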
[2] = inhibitors of intracellular T. cruzi replication, confirmation, NIH3T3 host cells, beta-gal luminescence (AID 2044); format: functional, cell-based;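 further: intracellular parasites grown in NIH/3T3 mouse fibroblasts as host cells; luminescent beta-galactosidase reporter signal from transgenic T. cruzi replicating inside host cells; inhibitors lower the luminescence signal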
INS1 = assay: beta cell apoptosis inhibitors, cytokine rescue, dose response, luminescence, retest (AID 449756); format: functional, cell-based; details: Rattus norvegicus;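 further: cell death triggered by IL-1 beta plus TNF-alpha plus IFN-gamma mixture; protective hits raise ATP signal compared with cytokine alone wells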
[3] = HEp-2 cell cytotoxicity, dose response, cytotoxicity control for RSV inhibitor project, HTS (AID 2410); format: functional; details: human respiratory syncytial virus
[4] = Luminescence Cell-Based Dose Response HTS to Identify Inhibitors of 5'UTR Stem-Loop Driven Prion Protein mRNA Translation in H4 Neuroglioblastoma Cells. [Related pubchem assays: 1827 (Project Summary), 1813 (Primary HTS)]; format: functional
[5] = inhibitors of SNCA 5'UTR-driven reporter translation, confirmation, H4 neuroglioma cells, luminescence (AID 1988); format: functional, cell-based
[6] = inhibitors of firefly luciferase expression or activity, dose response, H4 neuroglioma cells, luminescence (AID 1990); format: functional, cell-based

Structure (SMILES) | EC50 [1] | EC50 [2] | CC50 [3] | also measured
Cc1ccc(-c2nnc(N3CCCCCC3)c3ccccc23)cc1 | > 60 µM (not active) | 1.19 µM (active) |  | 
Cc1ccc(C2CC(c3cccc(C)c3)n3nc(N)nc3N2)cc1 (stereo not given) |  |  |  | AC50 (INS1): > 260 µM (inactive)
Cc1ccc(N2CCN(C(=O)c3nn(C)c4c3CS(=O)(=O)c3ccccc3-4)CC2)c(C)c1 |  |  | 10.3 µM (active) | 
CCC(C)c1ccc(-c2cc(C(=O)OCC(=O)Nc3cc(C)on3)c3ccccc3n2)cc1 (stereo not given) |  |  | 43.8 µM (active) | 
COc1ccccc1N1CCN(S(=O)(=O)CCNC(=O)C2CC(=O)N(c3ccccc3)C2)CC1 (stereo not given) |  |  |  | EC50 [4]: > 120 µM (not active); EC50 [5]: 114 µM (active); EC50 [6]: > 120 µM (not active)
Cc1nc2ccccc2c(=O)n1-c1cc([N+](=O)[O-])cc([N+](=O)[O-])c1 | > 60 µM (not active) | 1.98 µM (active) |  | 
CN(C)CCN(C(=O)c1ccc(S(=O)(=O)N(C)c2ccccc2)cc1)c1nc2ccc(Cl)cc2s1 | > 15 µM (not active) | 0.117 µM (active) |  | 
CC(=O)N1CCc2cc(S(=O)(=O)NCCC3=CCCCC3)ccc21 |  |  |  | AC50 (INS1): 4.54 µM (active)
Cc1ccccc1C(=O)NC(=S)Nc1sc2c(c1C#N)CCCC2 |  |  | 25.9 µM (active) | 
O=C(/C=C/c1ccccc1)NC(NC(=S)Nc1ccc(Cl)cc1Cl)C(Cl)(Cl)Cl (stereo not given) | > 60 µM (not active) | 2.02 µM (active) |  | 
CSCc1cc(N2CCOCC2)nc(SCc2ccc(Cl)c(Cl)c2)n1 |  |  | 26.1 µM (active) | 
COc1ccc(-c2cc(C(F)F)n3ncc(C(=O)N4CCCCC4)c3n2)cc1 | > 60 µM (not active) | 1.25 µM (active) | > 50 µM (active) | 
CCOC(=O)C1(CCOc2ccccc2)CCN(Cc2ccc3nonc3c2)CC1 | > 60 µM (not active) | 2.61 µM (active) |  | 
CCC(C)Sc1nc2c(c(=O)[nH]c(=O)n2C)n1C (stereo not given) |  |  | 20.8 µM (active) | 
Cc1ccc(Cn2nnc3c(O)nc(C4CCN(S(=O)(=O)Cc5ccccc5)CC4)nc32)cc1 |  |  | 26.8 µM (active) | 
CN1C/C(=C/c2ccsc2)C(=O)/C(=C/c2ccsc2)C1 | > 30 µM (not active) | 0.156 µM (active) |  | 
COc1ccc(-c2csc3ncnc(N4CCN(S(=O)(=O)c5ccc(C)c(C)c5)CC4)c23)cc1 | 24.1 µM (active) | 2.05 µM (active) |  | 
CCCc1cc(NCCCCO)n2c(nc3ccccc32)c1C#N |  |  |  | EC50 [4]: > 120 µM (not active); EC50 [5]: > 120 µM (not active); EC50 [6]: 25.6 µM (active)
Cc1cc(Cl)ccc1OCCCC(=O)NC1CCN(C)CC1 | > 60 µM (not active) | 0.164 µM (active) |  | 
Nc1ccccc1C(=O)Nc1ccc(Cl)cc1Cl |  |  | 35.7 µM (active) | 
COc1ccc(C2=NN(C(=O)COc3ncnc4ccccc34)C(c3ccco3)C2)cc1 (stereo not given) |  |  |  | EC50 [4]: > 120 µM (not active); EC50 [5]: > 60 µM (not active); EC50 [6]: 13.8 µM (active)
CCCOc1ccc([N+](=O)[O-])cc1C1NC(S)=NC(c2ccccc2)=C1C(=O)OCC (stereo not given) |  |  | 40.5 µM (active) | 

Structure (SMILES) | EC50 [1] | EC50 [2] | CC50 [3] | also measured
COc1ccc(NC(=O)/C(C#N)=C/c2cc(C)n(-c3ccc(N4CCOCC4)c([N+](=O)[O-])c3)c2C)cc1 |  |  |  | EC50 [4]: 35.2 µM (active); EC50 [5]: > 120 µM (not active); EC50 [6]: > 120 µM (not active)
COc1ccccc1Cn1nnc2c(O)nc(C3CCN(C(=O)c4ccccc4Cl)CC3)nc21 |  |  |  | EC50 [4]: > 120 µM (not active); EC50 [5]: 68.6 µM (active); EC50 [6]: > 120 µM (not active)
COc1ccccc1NS(=O)(=O)c1cccc(NC(=O)c2sc3ccccc3c2Cl)c1 | > 60 µM (not active) | 1.19 µM (active) |  | 
CC(=O)N(C(C)=O)c1[nH]cc2c3ccccc3nc-2c1C#N |  |  |  | EC50 [4]: 12.9 µM (active); EC50 [5]: 15.7 µM (active); EC50 [6]: 9.63 µM (active)
CCCN1CCC(=NNc2ccc(S(=O)(=O)N(CC)CC)cc2[N+](=O)[O-])CC1 |  |  |  | EC50 [4]: > 120 µM (not active); EC50 [5]: 8.05 µM (active); EC50 [6]: 16.5 µM (active)
Cc1ccn2cc(-c3cccc(S(=O)(=O)N4CC(C)OC(C)C4)c3)nc2c1 (stereo not given) |  |  | > 50 µM (active) | 
CCOC(=O)c1cccc(-c2c(-c3ccccc3)ncc3cc(OC)c(OC)cc23)c1 |  |  | 20.4 µM (active) | 
CCCCN1CC(=O)C(c2nc(-c3ccc(Cl)cc3)cs2)=C1N |  |  |  | EC50 [4]: > 120 µM (not active); EC50 [5]: > 120 µM (not active); EC50 [6]: > 120 µM (not active)
O=C(NCc1ccccc1)c1ccc(C(=O)N(C2CCCCC2)C2CCCCC2)cc1 | > 60 µM (inconclusive) | 2.27 µM (active) |  | 
Cn1c(=O)[nH]c(=O)c2c1nc(N1CCCCCC1)n2Cc1cccc2ccccc12 |  |  |  | EC50 [4]: > 120 µM (not active); EC50 [5]: 45 µM (active); EC50 [6]: 24.4 µM (active)
Cc1cc(C(=O)CSc2nc3ccccc3c(=O)n2C)c(C)n1Cc1ccc2c(c1)OCO2 |  |  |  | AC50 (INS1): 1.41 µM (active)
CC(C)(C)c1ccc(C(=O)Nc2ccc(S(=O)(=O)Nc3cnc4ccccc4n3)cc2)cc1 |  |  | 8.3 µM (active) | 
COC(=O)c1ccc(CSc2ccc3nnc(-c4ccccc4)n3n2)o1 |  |  |  | EC50 [4]: 15.7 µM (active); EC50 [5]: 16.6 µM (active); EC50 [6]: > 120 µM (not active)
Cc1ccc(-c2cc(C(F)F)n3ncc(C(=O)N4CCc5ccccc5C4)c3n2)cc1 | > 60 µM (not active) | 1.72 µM (active) |  | 
CCOc1cc(/C=C(\C#N)C(=O)Nc2cccc(C(=O)O)c2)ccc1OCc1ccccc1Cl |  |  | 29.9 µM (active) | 
COc1ccccc1N1CCN(C(CNC(=O)Oc2ccccc2)c2cccnc2)CC1 (stereo not given) | > 60 µM (not active) | 5.42 µM (active) |  | 
Cc1ccc(Nc2nnc(-c3ccc(N4CCOCC4)c([N+](=O)[O-])c3)c3ccccc23)cc1 |  |  | 10.8 µM (active) | 
CCOc1ccccc1Nc1cc(C)nc2ccc(C)cc12 |  |  | 26.1 µM (active) | 
O=c1n(Cc2ccccc2F)c2ccccc2n1Cc1ccccc1F |  |  |  | EC50 [4]: > 120 µM (not active); EC50 [5]: > 120 µM (not active); EC50 [6]: 22 µM (active)
COc1ccc(CN2CCN(Cc3cc4ccccc4o3)CC2CCO)cc1C (stereo not given) | > 60 µM (not active) | 0.306 µM (active) |  | 
O=C(/C=C/c1ccccc1)Nc1ccc2c(c1)OCCO2 |  |  |  | EC50 [4]: 10.4 µM (inconclusive); EC50 [5]: 9.98 µM (inconclusive); EC50 [6]: 10.7 µM (inconclusive)
Cc1c(C(=O)NN2CCCCC2)nn(-c2ccc(Cl)cc2Cl)c1-c1ccc(I)cc1 |  |  |  | EC50 [4]: > 120 µM (not active); EC50 [5]: 12.4 µM (active); EC50 [6]: 11.3 µM (active)
